Assay [1] has as its system STI-571 resistant K562 cells. Briefly: Proliferation in liquid culture. Type of assay: cell-based, human. Conditions: STI-571 resistant K562, similar manner as parental line.
The subject of assay [2] is STI-571 resistant hematopoietic progenitors from CML patients. Briefly: Methylcellulose hematopoietic colony assay of primary cells from CML patients relapsed on STI-571. Type of assay: cell-based. Conditions: Homo sapiens, read-out: IC50, colony formation of STI-571 resistant hematopoietic progenitors. The protocol: Numbers are normalized to control (DMSO) and are presented as means +/−S.D. of duplicate plates.
Low density mononucleocytes were isolated from either fresh or cryo-preserved peripheral blood using Lymphoprep (Nycomed, Oslo, Norway). […] All clonogenic assays were performed in duplicate.

Assay [3] deals with STI-571 resistant LAMA84 cells. Briefly: Proliferation in liquid culture. The format is cell-based, human. Particulars: STI-571 resistant LAMA84, similar manner as parental line.
A further assay relates to BaF3-BCR/ABL cells. The assay is described as follows: Soft agar colony formation of BaF3-BCR/ABL cells. The format is cell-based, murine. Conditions: Mus musculus, 240 h; BaF3-BCR/ABL cells in soft agar, colonies counted day 10; read-out: IC50, inhibition of soft agar colony number.
Assay [4] concerns STI-571 resistant clone of a BaF3-BCR/ABL. Briefly: Soft agar colony formation of STI-571 resistant BaF3-BCR/ABL clone. Conditions: STI-571 resistant BaF3-BCR/ABL clone compared with parental cells.
From the text: Macroscopic colonies were counted in duplicate plates on day 10. In some cases colony numbers were normalized by dividing the number of colonies under a given condition by the number of colonies formed in the presence of no drug (DMSO alone).
Assay [5] concerns STI-571 sensitive or resistant BCR/ABL positive cell lines (BaF3-BCR/ABL, K562, LAMA-84, AR230). Briefly: Cell viability by trypan blue dye exclusion. The format is cell-based. Conditions: SCH66336 alone at concentrations up to 5 μM, STI-571 sensitive or resistant cell lines. The protocol:
FIGS. 9A-9E are graphs showing that SCH66336 and STI571 in combination induce apoptosis in STI571 resistant cells. […] Viability of cells was assessed at daily intervals by dye exclusion.

The subject of assay [6] is parental BaF3-BCR/ABL cells. The assay is described as follows: Caspase-3 immunoblotting (cleavage of procaspase-3). Particulars: protein lysates of treated cells. In general terms: Immunoblotting shows a protein as a band on a membrane.
Method: (§1) Some cells were lysed and subjected to immunoblotting with caspase-3 antibody (FIG. 8A) or analyzed for annexin V staining (FIG. 8B) by FACS using the Apo-Alert kit (Clontech).
Cells were washed in cold PBS and lysed in NP-40 lysis buffer (1% NP-40, 150 mM NaCl, 20 mM Tris (pH 7.4), 10% glycerol, 10 mM NaVO3, 1 mM ZnCl2, 1 mM MgCl2, and 2 mM PMSF). Approximately 50 ug of protein were separated by SDS-PAGE and electrophoretically transferred to nitrocellulose membrane using standard protocols. Membranes were incubated with primary and secondary antibodies in TBST buffer (20 mM Tris-HCl [pH 7.4], 500 mM NaCl, 0.01% Tween 20) containing 5% dry milk. Immunoreactivity was detected by enhanced chemiluminescence.
The subject of assay [7] is STI-571 resistant AR230 cells. Briefly: Proliferation in liquid culture. The format is cell-based, human. Conditions: STI-571 resistant AR230, similar manner as parental line.
The subject of assay [8] is parental BaF3-BCR/ABL cells. The assay is described as follows: Apoptosis by annexin V staining (ApoAlert Annexin V kit, FACS). Conditions: 2.0 uM SCH66336, 48 hours.
Method: as §1
Apoptosis was measured in cells after incubation with drugs by staining for annexin-positive cells using the ApoAlert Annexin V kit (Clontech, Palo Alto, Calif.). Flow cytometry analysis was performed using Cell Quest (Becton Dickinson, Franklin Lakes, N.J.).
For assay [9], the system named is STI-571 resistant BaF3-BCR/ABL cells. The assay is described as follows: Proliferation in liquid culture, viable cells by dye exclusion. The format is cell-based, murine. Particulars: 0.5 or 1.0 μM STI-571 or increasing concentrations of SCH66336. The protocol: Viable cells were assessed at daily intervals by dye exclusion.

One may read the IC50 as the concentration that gives 50% inhibition. Turning to `NC(=O)N1CCC(CC(=O)N2CCC([C@H]3c4ncc(Br)cc4CCc4cc(Cl)cc(Br)c43)CC2)CC1` [SCH66336], the effect on proliferation entry in [1], in assay [3] and in [7] was “inhibits the proliferation” each time. Moreover, the 50% inhibitory concentration (IC50) in [2] was 250 to 500 nM; with BaF3-BCR/ABL cells, around 100 nM. For the same molecule, in [4], the “effect on soft agar colony formation of STI-571 resistant clone” value is “as sensitive, if not more so”. Moreover, in assay [5], the “effect on cell viability” value is “little effect on cell viability”. Further, in assay [6], the “levels of active caspase-3 (immunoblot)” value was “low levels of active caspase-3”. In addition, the “levels of annexin V staining” value in [8] was “Low levels of annexin V staining”. Moreover, the “effect on growth / proliferation” value in assay [9] is given as “dose-dependent inhibition of proliferation”.

Values taken from patent US20050020516A1, “Effects of combined administration of farnesyl transferase inhibitors and signal transduction inhibitors” (Whitehead Institute for Biomedical Research, priority 2000, published 2005).
